From US20260165968A1, “SUSTAINED-RELEASE PLGA MICROSPHERE CONTAINING GS-441524, AND METHOD FOR PRODUCING SAME” (THE INDUSTRY & ACADEMIC COOPERATION IN CHUNGNAM NATIONAL …, priority 2022, published 2026)
Read-outs that look alike come from different tables or passages of the source.

Experiments:
[1] = Pharmacokinetic evaluation after subcutaneous injection into rats; type: in vivo
Experimental: The pharmacokinetic evaluation of the GS-441524-containing PLGA microspheres of Example F3 according to the disclosure was carried out. Rats as test animals were randomly divided into test and control groups, with 5 animals in each group, and raised under the same conditions while predetermined amounts of solid food and water were supplied for 7 days. The rats were fasted for 12 hours before testing, and then used for testing.
The test group was subcutaneously administered GS-441524 at a dose corresponding to 28 mg/kg by using the PLGA microspheres of Example F3 of the disclosure, and the control group was subcutaneously administered 28 mg/kg GS-441524 alone. Approximately 300 μL of blood was collected by retro-orbital bleeding 1, 2, 4, 8, 12, 24, 48, 72, 96, 120, and 144 hours after the subcutaneous injection to the rats. Each of the obtained samples was centrifuged at 15,000 rpm for 5 minutes to separate the plasma, and then stored at −70° C. before analysis.
Plasma sample pre-treatment was performed using a deproteination method. After 100 μL of a plasma sample was taken, 200 μL of methanol (the internal standard substance 10 ng/MI verapamil) was added thereto, followed by mixing for 10 minutes and then extraction. The extract was centrifuged at 17,000 rpm for 10 minutes, and then the supernatant was collected and analyzed using LC-MS/MS to quantify GS-441524 in the blood.

[2] = in humans; cited from earlier work
[3] = rat, plasma, sc, 28 mg/kg GS-441524

Cl ([1]; 28 mg/kg GS-441524): 17.32 ± 9.32 mL/min/kg
Vz ([1]; 28 mg/kg GS-441524): 81.261 ± 84.077 L/kg
Cmax [1, 3]: 8170 ± 4080 ng/mL
half-life [1, 3]: 61.5 ± 66.2 h
AUC(0-t) ([1]; rat, plasma, sc, 28 mg/kg GS-441524, read-out: AUC0→144): 31600 ± 14300 ng·h/mL
Compound: N#C[C@@]1(c2ccc3c(N)ncnn23)O[C@H](CO)[C@@H](O)[C@H]1O [GS-441524, (2R,3R,4S,5R)-2-(4-aminopyrrolo[2,1-f][1,2,4]triazin-7-yl)-3,4-dihydroxy-5-(hydroxymethyl) oxolane-2-carbonitrile]
half-life [2]: about 24 hours
